Assay results published in PubChem BioAssay (NCI).
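Exposure lasted 48 hours, with cells grown in 96-well plates and compounds tested at five concentrations. GI50 is the concentration that inhibits growth by half. At the TGI there is no net growth.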 Where a SMILES comes first, the peptide text is derived from it.

Tests used:
Assay in all cases: NCI anticancer screen, dose series, 48 h
786-0 renal = test system: 786-0 renal
CAKI-1 renal = test system: CAKI-1 renal
CCRF-CEM leukemia = test system: CCRF-CEM leukemia
IGROV1 ovarian = test system: IGROV1 ovarian
MCF7 breast = test system: MCF7 breast
MOLT-4 leukemia = test system: MOLT-4 leukemia
NCI/ADR-RES ovarian = test system: NCI/ADR-RES ovarian
RXF 393 renal = test system: RXF 393 renal
SF-295 CNS = test system: SF-295 CNS
SR leukemia = test system: SR leukemia
U251 CNS = test system: U251 CNS

Compound | TGI (786-0 renal) | TGI (CAKI-1 renal) | TGI (CCRF-CEM leukemia) | TGI (IGROV1 ovarian) | TGI (MCF7 breast) | TGI (MOLT-4 leukemia) | TGI (NCI/ADR-RES ovarian) | TGI (RXF 393 renal) | TGI (SF-295 CNS) | TGI (SR leukemia) | TGI (U251 CNS) | GI50 (CAKI-1 renal) | GI50 (CCRF-CEM leukemia) | GI50 (MCF7 breast) | GI50 (NCI/ADR-RES ovarian) | GI50 (RXF 393 renal) | GI50 (SF-295 CNS) | GI50 (SR leukemia) | GI50 (U251 CNS)
CCCC(CC)c1cc(O)c(O)cc1C(CC)CCC (stereo not drawn) | > 10 µM | > 10 µM | > 10 µM | > 10 µM | > 10 µM | > 10 µM | > 10 µM | > 10 µM | > 10 µM | > 10 µM | > 10 µM |  |  |  |  |  |  |  | 
COC(=O)NC(Nc1ccc(C)cc1)(C(F)(F)F)C(F)(F)F | > 100 µM | > 100 µM | > 100 µM | > 100 µM | > 100 µM | > 100 µM | > 100 µM | 93.9 µM | > 100 µM | > 100 µM | > 100 µM |  |  |  |  |  |  |  | 
O=C(c1ccccc1)c1ccc2nc(-c3c(Cl)c(Cl)c(Cl)c(Cl)c3C(=O)Nc3ccco3)[nH]c2c1 | > 100 µM | > 100 µM | > 100 µM | > 100 µM | > 100 µM | > 100 µM | 62.4 µM | > 100 µM | > 100 µM | 58.8 µM | > 100 µM |  |  |  |  |  |  |  | 
CC(=O)Nc1nc(C)c(S(=O)(=O)NC(=O)N2c3ccccc3CCc3ccccc32)s1 | > 100 µM | > 100 µM | > 100 µM | > 100 µM | > 100 µM | > 100 µM | > 100 µM | > 100 µM | > 100 µM | > 100 µM | > 100 µM |  |  |  |  |  |  |  | 
COc1c(-c2ccc(F)cc2)oc2cc(O)cc(O)c2c1=O | 99.2 µM | 48.5 µM | 95.3 µM | > 100 µM | > 100 µM | > 100 µM | 63.5 µM |  | 83.9 µM | > 100 µM | 97.5 µM |  |  |  |  |  |  |  | 
N#C[C@H]1C(=O)C(c2nc3ccccc3[nH]2)S[C@H]1c1ccccc1 (stereo partly drawn) | 54.2 µM | > 100 µM | > 100 µM | > 100 µM | > 100 µM | > 100 µM | > 100 µM | 67.8 µM | 86.2 µM | > 100 µM | 57.2 µM |  |  |  |  |  |  |  | 
O=[N+]([O-])c1cccc([N+](=O)[O-])c1Cl | > 100 µM | 7.68 µM |  | 30.6 µM | > 100 µM | > 100 µM | 57.4 µM | 38.3 µM | 34.8 µM | > 100 µM | 25.8 µM |  |  |  |  |  |  |  | 
COc1ccc(-c2cc(-c3ccc(OC)c(OC)c3)nc(SCCCC(=O)NO)n2)cc1 |  | 2.37 µM | > 100 µM |  | 10.2 µM |  | 4.77 µM | 2.5 µM | 3.77 µM | 15.5 µM | 5.78 µM | 0.431 µM | 1.36 µM | 2.75 µM | 0.977 µM | 0.587 µM | 1.74 µM | 0.552 µM | 1.76 µM
O=C1CCc2cc3c(cc21)C(C(=O)O)CC3 (stereo not drawn) | > 100 µM | > 100 µM | > 100 µM | > 100 µM | > 100 µM | > 100 µM | > 100 µM | > 100 µM | > 100 µM | > 100 µM | > 100 µM |  |  |  |  |  |  |  | 
O=C1NC(=S)N/C1=C\c1ccc(Sc2ccccc2C(=O)O)s1 | > 100 µM | > 100 µM |  | > 100 µM | > 100 µM | > 100 µM | > 100 µM | > 100 µM | > 100 µM | > 100 µM | > 100 µM |  |  |  |  |  |  |  | 
COc1ccc(Nc2nc(NNC(=O)Cc3ccccc3)nc(NNC(=O)c3ccncc3)n2)cc1 | > 10 µM | > 10 µM | > 10 µM | > 10 µM | > 10 µM | > 10 µM | > 10 µM |  | > 10 µM | > 10 µM | > 10 µM |  |  |  |  |  |  |  | 
c1cc2c3c(c1)[C@@H]1O[C@@H]1c1cccc(c1-3)[C@@H]1O[C@H]21 | 75 µM | 32.7 µM |  |  | > 100 µM | > 100 µM | 61.6 µM | 17.2 µM | > 100 µM | > 100 µM | 33 µM |  |  |  |  |  |  |  | 
COC(CC1(CCNc2ccccc2)C(=O)N(COCC[Si](C)(C)C)c2ccccc21)OC (stereo not drawn) | 25.4 µM | > 62.2 µM | > 31.6 µM | 21.4 µM | 30.4 µM | > 100 µM | 39.6 µM | 29.4 µM | 32 µM | > 100 µM | > 61 µM |  |  |  |  |  |  |  | 
COc1ccc(OC)c(-c2cn3c(n2)sc2ccccc23)c1 | > 100 µM | > 100 µM | > 100 µM | > 100 µM | > 100 µM | > 100 µM | > 100 µM | > 100 µM | > 100 µM | > 100 µM | > 100 µM |  |  |  |  |  |  |  | 
O=P1(N(CCCl)CCCl)NCCCO1 (stereo not drawn) | > 250 µM | > 191 µM | 213 µM | > 239 µM | > 250 µM | > 250 µM | > 250 µM | > 250 µM | > 246 µM | > 250 µM | > 250 µM |  |  |  |  |  |  |  | 
Cc1cc2nc3c(N)nn(CCN(C)C)c3nc2cc1C | > 100 µM | > 100 µM | > 100 µM | > 100 µM | > 100 µM | > 100 µM | > 100 µM | > 100 µM | > 100 µM | > 100 µM | > 100 µM |  |  |  |  |  |  |  | 
Cc1ccc(C(=O)NN=C(/N=N/c2cccc(C)c2)c2ccc(N(C)C)cc2)cc1 | > 100 µM | > 100 µM | > 100 µM | > 100 µM | > 100 µM | > 100 µM | > 100 µM |  | > 100 µM | > 100 µM | > 100 µM |  |  |  |  |  |  |  | 
CCCCN(CCCC)C1=Nc2ccccc2-n2c(nnc2C(=O)OCC)C1 | > 100 µM | > 100 µM | > 100 µM | > 100 µM | > 100 µM | 84.1 µM | > 100 µM | 77.4 µM | > 100 µM | 56.3 µM |  |  |  |  |  |  |  |  | 
COC(=O)c1c(C)cccc1C1CN=NC12Cc1cccc(C)c1C2=O (stereo not drawn) | > 100 µM | > 100 µM | 71.1 µM | > 100 µM | > 100 µM |  | > 100 µM | > 100 µM |  | > 100 µM | > 100 µM |  |  |  |  |  |  |  | 
CN1C(=O)C(CCO)(C(C)(C)C)c2ccccc21 (stereo not drawn) | > 100 µM | > 100 µM | > 100 µM |  | > 100 µM | > 100 µM | > 100 µM | > 100 µM | > 100 µM | > 100 µM | > 100 µM |  |  |  |  |  |  |  | 
Cc1sc2nc3n(sc4nc5sc(C)c(C)c5c(=O)n43)c(=O)c2c1C | > 100 µM | > 100 µM | 45.1 µM | > 100 µM | > 100 µM | 52 µM | > 100 µM |  | > 100 µM | > 100 µM | > 100 µM |  |  |  |  |  |  |  | 
C=C1CC(Cn2cc(Br)c(=O)[nH]c2=O)(c2ccc(Br)cc2)OC1=O (stereo not drawn) | 3.27 µM | 7.13 µM | 5.26 µM | 4.06 µM | 14.4 µM | 6.13 µM | 15.9 µM |  | 31 µM | > 22.6 µM | 28.8 µM |  |  |  |  |  |  |  | 
CCOC(=O)COC1=Nc2cc(OC)c(OC)c3nc(Cl)cc(c23)C1=O | 3.04 µM | 3.58 µM |  | 5.97 µM | 3.46 µM | 5.91 µM | > 31.4 µM | 3.34 µM | 24 µM | > 21.5 µM | 8.49 µM |  |  |  |  |  |  |  | 
CCC(C)C(NC(=O)C1CCCN1)C(=O)NC(C(=O)NCC(=O)NC(CC(N)=O)C(=O)NC(CC(C)C)C(=O)NC(CC(C)C)C(=O)NC(CCCCN)C(N)=O)C(C)C (stereo not drawn) (H-PIVGNLLK-NH2; configuration not given here) | > 75 µM | > 75 µM | > 75 µM | > 75 µM | > 75 µM | > 75 µM | > 75 µM |  | > 75 µM | > 75 µM | > 75 µM |  |  |  |  |  |  |  | 
CCC(=O)Nc1ccc(N2C(=O)/C(=C/c3ccc(O)c(OC)c3)N=C2c2ccccc2)cc1 | 95.6 µM | > 100 µM | > 100 µM | > 100 µM | > 100 µM | > 100 µM | > 100 µM | 48.4 µM | > 100 µM | > 100 µM |  |  |  |  |  |  |  |  | 
C=C(C)[C@@H]1CC[C@]2(C(=O)OC3OC(COC4OC(CO)C(OC5OC(C)C(O)C(O)C5O)C(O)C4O)C(O)C(O)C3O)CC[C@]3(C)[C@H](CC[C@@H]4[C@@]5(C)CC[C@H](O)[C@@](C)(CO)[C@@H]5CC[C@]43C)[C@@H]12 (stereo partly drawn) | > 10 µM | > 9.66 µM |  | > 10 µM | > 10 µM |  | > 10 µM | > 10 µM | > 8.59 µM | > 4.48 µM | > 10 µM |  |  |  |  |  |  |  | 
CCCOC1OC(CS(=O)(=O)O)C(OC(C)=O)C(OC(C)=O)C1OC(C)=O (stereo not drawn) |  | > 100 µM | > 100 µM | > 100 µM | > 100 µM | > 100 µM | > 100 µM | > 100 µM | > 100 µM | > 100 µM | > 100 µM |  |  |  |  |  |  |  | 
C=C1CN=C(Nc2ccc(F)cc2F)S1 | > 100 µM | > 100 µM | 66.1 µM | > 100 µM | > 100 µM | 96.5 µM | > 100 µM |  | > 100 µM | > 100 µM | > 100 µM |  |  |  |  |  |  |  | 
Cn1cnc(/C=C/C#N)c1 |  | > 100 µM | > 100 µM | > 100 µM | > 100 µM | > 100 µM | > 100 µM | > 100 µM | > 100 µM | > 100 µM | > 100 µM |  |  |  |  |  |  |  | 
O=C(O)Cn1ncn(NC(=O)Cc2ccccc2)c1=S | > 10 µM | > 10 µM | > 10 µM | > 10 µM | > 10 µM | > 10 µM | > 10 µM |  | > 10 µM | > 10 µM | > 10 µM |  |  |  |  |  |  |  | 
